The METLIN SMRT retention time set (Domingo-Almenara et al. 2019)

Experiment: gradient 5% acetonitrile 3 min, to 50% in 2 min, to 85% in 15 min, held 3 min, 100 µL/min
Details: column: Zorbax Extend-C18 2.1 x 50 mm; eluents: water / acetonitrile, 0.1% formic acid
Method in brief: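 The mobile phases were water and acetonitrile, each with 0.1% formic acid, pumped at 100 μL/min through a Zorbax Extend-C18 column (2.1 × 50 mm, 1.8 μm). Pure standards were injected as mixtures of ~100 molecules and detected by a quadrupole time-of-flight mass spectrometer in positive and negative ionization mode. Retention time came from computationally picked adduct peaks, each inspected by hand.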

Compound | RP-LC retention time [s]
O=C(CCc1c(-c2ccccc2)nc2ccccn12)NCc1cccc(Br)c1 | 691
Cc1cc(-c2nnc3sc(COc4ccc(F)cc4)nn23)n[nH]1 | 727
COc1cccc(Nc2c(-c3ccc(C(=O)O)cc3)nc3cnccn23)c1 | 681
Cc1ccc(Cl)cc1NC(=O)N1C[C@@H](F)C[C@H]1C(=O)N1CCCCC1 | 746
COc1cc(NS(=O)(=O)c2c(C)nn(-c3ccc(-c4ccc(C)cc4)nn3)c2C)cc(OC)c1 | 1120
CCCC(=O)Nc1ccc2c(c1)CN(C(=O)Cc1cccs1)C(C(=O)N(C)C)C2 (configuration not stated) | 690
CN1C(=O)C2(CCN(C(=O)c3ccccc3)C2)c2ccccc21 (configuration not stated) | 707
O=C(Cc1c(F)cccc1Cl)N1CCN(c2cc(-c3cccs3)[nH]n2)CC1 | 840
Cc1cc(C(=O)Nc2nnc(CCSc3ccccc3)o2)on1 | 694
CC(=O)N1CCC(C(=O)N(C)C2CCc3nn(C)c(=O)n3CC2)CC1 (configuration not stated) | 569
CCCN1CCN(C2CCN(C(=O)C(CC)CC)CC2)C1=O | 727
Cc1nnc2n1CCC(NS(=O)(=O)c1ccccc1F)CC2 (configuration not stated) | 590
COc1ccc(CNC(=O)Cn2c(C(F)(F)F)nc3cc4c(cc32)OCCO4)cc1OC | 764
CCC(C)NC(=O)c1nnn(Cc2cccc(Cl)c2)c1-n1cccc1 (configuration not stated) | 1040
COc1ccc(S(=O)(=O)N2CCCC(C(=O)NCCO)C2)cc1OC (configuration not stated) | 597
O=C(/C=C/c1ccccc1)NC(Cc1ccccc1)C(=O)N1CCN(c2ccccn2)CC1 (configuration not stated) | 692
CCN1C(=O)COc2ccc(-c3noc(C(C)Oc4ccccc4)n3)cc21 (configuration not stated) | 1090
Cc1cc(Cl)ccc1NC(=O)N1CC(Cc2nc(-c3cnccn3)no2)C1 | 754
O=C(Nc1ccccc1F)N1CCN(c2cc(-c3ccncc3)[nH]n2)CC1 | 553
O=C(NCC1CCOCC1)Nc1ccccc1 | 656
O=C(NCCN1CCOCC1)c1ccc(-c2c(-c3ccc(F)cc3)ncn2C2CCCCC2)o1 | 605
CN1CCC(NC(=O)C2CCN(c3nc4ccc(-c5cccs5)nc4s3)CC2)CC1 | 654
CC12NC(Cc3ccccc31)c1ccccc12 (configuration not stated) | 670

Compound | RP-LC retention time [s]
COCCn1c(=O)c2cc(C(=O)N3CCCC3)nn2c2ccccc21 | 760
Cc1nc2cc(-c3noc(-c4ccc(C)c(F)c4)n3)ccc2o1 | 1210
COc1ccc(NC(=O)N2CCC3(CC2)N=C(c2ccccc2)C(=O)N3)c(OC)c1 | 764
CCSc1nc2c(s1)c(=O)n(-c1ccccc1)c(=O)n2CC(=O)NC1CCCCC1 | 645
COc1ccccc1OCC1c2ccsc2CCN1C(=O)CN(C(C)=O)C(C)C (configuration not stated) | 773
Cc1nc(C2CCCN2Cc2ccccc2C)n[nH]1 (configuration not stated) | 546
Cc1cc(C)c2c(N3CCSCC3)nc(C(=O)NCC3CC3)nc2n1 | 653
CCn1c(=O)sc2cc(S(=O)(=O)N3CCC(C(=O)Nc4ccccc4)CC3)ccc21 | 878
O=C(NC1CC1)c1ccc(OCC2CCCN(C(=O)c3ccsc3)C2)cc1 (configuration not stated) | 737
COCc1cc(=O)n(Cc2ccccc2)c(N2CCCC2)n1 | 777
Cc1cccc(Cn2nc3n(c2=O)CCCCC3)c1 | 763
Cc1csc(-c2csc(S(=O)(=O)N3CCc4ccccc4C3)c2)n1 | 1110
O=C1CCCCC(Cc2ccccc2)(C(=O)NC2CCS(=O)(=O)C2)N1 (configuration not stated) | 656
O=C(CN1CCC2(CC1)N=C(c1cccc(F)c1)C(=O)N2)Nc1ccc(Br)cc1F | 711
CCNc1cc(N2CCCC(CCC(=O)N3CCC(C)CC3)C2)ncn1 (configuration not stated) | 676
CCC(C)C(NC(=O)c1cc(OC)cc(OC)c1)C(=O)Nc1nc2ccccc2[nH]1 (configuration not stated) | 769
Cc1ccc2c(c1)C1(CCN(CCc3nc(-c4ccccc4)oc3C)CC1)OC(=O)N2 | 747
COc1ccc(-c2nnc(COc3cccc(NC(=O)c4ccccn4)c3)o2)cc1 | 941
CCN1CCN(c2ncc(N3CCC(C(=O)NCC(C)C)CC3)cn2)CC1 | 582
COCCNC(=O)CN1c2ccccc2NC2=C(C(=O)CC(C)(C)C2)C1c1cccs1 (configuration not stated) | 727
CCC(C)CC(=O)N1CCCN(C2=NS(=O)(=O)C(c3ccc(C(C)C)cc3)=C2C)CC1 (configuration not stated) | 1000
CCOc1ccc(C2=NC3(CCN(C)CC3)NC(c3ccccc3O)C2)cc1 (configuration not stated) | 604
Cc1ccc2[nH]cc(CCNC(=O)COc3ccccc3)c2c1 | 904

Compound | RP-LC retention time [s]
Cc1cnn(Cc2c(C(=O)N3C[C@@H](C(N)=O)[C@H](c4n[nH]c(C)n4)C3)noc2C)c1 | 590
CCc1nnc2nc(N3CCN(C(=O)c4ccccc4)CC3)cc(C)n12 | 597
O=C1c2cccc3c2[C@H](CCC3)CN1[C@@H]1CN2CCC1CC2 | 678
O=C1CC(c2noc(-c3cccc(OC(F)(F)F)c3)n2)CN1c1ccc(Cl)cc1 (configuration not stated) | 1210
Cc1cccc(NC(=O)C(=O)NCCc2cccs2)n1 | 788
CCn1c(=O)c(=O)n(CC(=O)NCCc2ccco2)c2cccnc21 | 638
Cc1cc(NS(=O)(=O)c2cc3n(c2)CCCNC3=O)ccc1Cl | 711
CCCCn1nc2c(S(=O)(=O)N3CCN(c4ccc(F)cc4)CC3)cccn2c1=O | 951
COc1cccc(C(=O)NC2(C(F)(F)F)C(=O)N(C3CCCCC3)C(C)=C2C(C)=O)c1 (configuration not stated) | 987
COc1ccccc1-c1nc(-c2ccccn2)no1 | 813
Cc1cc(N2CCN(C(=O)CCc3ccccc3)CC2)nc2nncn12 | 616
CCC1(O)CCC12CCN(C(=O)c1cccs1)CC2 (configuration not stated) | 718
COc1ccc(-c2noc(-c3ccc(NCCCN4CCC(C)CC4)nc3)n2)cc1 | 666
CCNC(=O)C1CCN(c2nc3ccc(-c4cccnc4)nc3s2)CC1 | 591
CC(C)CCNC(=O)C1(C)Cn2nc(C(=O)NC(C)c3ccccc3)cc2C(=O)N1C (configuration not stated) | 778
Cc1ccc(CNC2=NCCNC23CCN(S(=O)(=O)c2ccc(F)cc2)CC3)cc1 | 733
Cc1cccc(S(=O)(=O)N2CCc3nc(-c4ccccc4)ncc3C2)c1 | 1070
COc1ccc(CCC(=O)NCC2(c3cccs3)CCCC2)cc1 | 947
CCCC(NC(=O)Cc1ccccc1C)C(=O)Nc1nc2ccccc2[nH]1 (configuration not stated) | 704
CCc1ccc(CNC(=O)c2cn3c(n2)COCC3)cc1 | 710
O=C(CCS(=O)(=O)c1ccccc1)Nc1ccc(-c2ccn[nH]2)cc1 | 648
COC(=O)c1ccc(NC(=O)c2c(O)c3cccnc3n(-c3ccc(F)cc3)c2=O)cc1 | 1210
O=C(CCc1c(-c2ccccc2)nc2ccccn12)Nc1ccccc1Br | 683

Compound | RP-LC retention time [s]
Cc1csc(-c2cc(S(=O)(=O)Nc3cccc(C)c3C)c(C)s2)n1 | 1090
CCCCNC(=O)C1CCCN(c2cc(=O)n(C)c(=O)n2CC)C1 (configuration not stated) | 759
CCC(CC)C(=O)NCC(c1ccc(Br)cc1)c1c[nH]c2ccccc12 (configuration not stated) | 945
Cc1cc(C)cc(NC(=O)C2CCN(c3nccnc3Sc3cccc(C)c3)CC2)c1 | 1150
Cc1cc(-c2csc(S(=O)(=O)N(Cc3cccs3)C3CCCC3)c2)on1 | 1190
CCOC(=O)c1c(C)[nH]c(CCC(=O)NC(C)c2ccccc2)c1C (configuration not stated) | 853
COc1ccc(-c2cc(N3CCC(NC(=O)c4ccc5c(c4)OCO5)C3)n[nH]2)cc1 (configuration not stated) | 690
COc1cccc(-c2cn3ccn(-c4ccccc4OC)c(=O)c3n2)c1 | 780
O=C1NC(C(=O)NCc2cccs2)Cn2cccc21 (configuration not stated) | 620
COc1ccc(CNC(=O)c2c(C)sc3ccn(C)c(=O)c23)cc1OC | 674
CCCNC(=O)C1CCN(c2ccc(SCC(=O)Nc3ccc(F)cc3F)nn2)CC1 | 670
CCOC(=O)c1c(C)oc2ncnc(N3CCc4cc(OC)c(OC)cc4C3C)c12 (configuration not stated) | 981
COc1ccc(NC(=O)CN2C(=O)NC3(CCCCC3)C2=O)cc1 | 723
Cc1cccc(OCc2nc(CCN(C)C(=O)NC3CCCCC3)no2)c1 | 938
CCOc1cccc(-c2noc(Cn3c(=O)n(Cc4cccc(OC)c4)c(=O)c4sccc43)n2)c1 | 1150
Cc1nn(-c2ccc(-c3ccccc3)nn2)c(C)c1S(=O)(=O)Nc1ccc2c(c1)OCCO2 | 978
COc1ccc(OC)c(S(=O)(=O)N2CCC(C)(c3noc(C)n3)CC2)c1 | 866
COc1cccc(CNC2CCN(c3ccc(C(=O)NC4CC4)cn3)C2)c1OC (configuration not stated) | 562
CCNc1cc(N2CCC(CCC(=O)NCc3ccc(F)c(Cl)c3)CC2)ncn1 | 682
CC(C)CC(NC(=O)c1cccs1)C(=O)Nc1nc2ccccc2[nH]1 (configuration not stated) | 703
CCn1cc(C)c(C(=O)O)c1CC(=O)NCCN1CCN(C)CC1 | 561
COCCC1(NC(=O)c2ccsc2)CCN(S(C)(=O)=O)CC1 | 691
COc1ccc2ncc(S(=O)(=O)c3ccc(C)c(C)c3)c(N3CCN(C)CC3)c2c1 | 654
